{"source": "patent US7144731B2", "about": "“SCF antibody compositions and methods of using the same” (Amgen Inc., priority 1989, dated 2006)", "molecules": {"B1": {"name": "CSF-1: human macrophage colony-stimulating factor (protein, UniProt P09603 33-554, looked up)", "Macrophage colony-stimulating …": "EEVSEYCSHMIGSGHLQSLQRLIDSQMETSCQITFEFVDQEQLKDPVCYLKKAFLLVQDIMEDTMRFRDNTPNAIAIVQLQELSLRLKSCFTKDYEEHDKACVRTFYETPLQLLEKVKNVFNETKNLLDKDWNIFSKNCNNSFAECSSQDVVTKPDCNCLYPKAIPSSDPASVSPHQPLAPSMAPVAGLTWEDSEGTEGSSLLPGEQPLHTVDPGSAKQRPPRSTCQSFEPPETPVVKDSTIGGSPQPRPSVGAFNPGMEDILDSAMGTNWVPEEASGEASEIPVPQGTELSPSRPGGGSMQTEPARPSNFLSASSPLPASAKGQQPADVTGTALPRVGPVRPTGQDWNHTPQKTDHPSALLRDPPEPGSPRISSLRPQGLSNPSTLSAQPQLSRSHSSGSVLPLGELEGRRSTRDRRSPAEPEGGPASEGAARPLPRFNSVPLTDTGHERQSEGSFSPQLQESVFHLLVPSVILVLLAVGGLLFYRWRRRSHQEPQRADSPLEQPEGSPLTQDDRQVELPV"}}, "key": {"UT-7 cells": {"system": "UT-7 cells", "experiment": "UT-7 ^3H-thymidine uptake assay", "assay_type": "cell-based, human", "description": "UT-7 cells are a human megakaryocyte, huGM-CSF responsive cell line obtained from John Adamson, New York Blood Center, New York, N.Y. UT-7 cells were cultured in Iscove's Modified Dulbecco's Medium, 10% FBS, 1× glutamine, 5 \\g/ml huGM-CSF. Cells are passaged twice a week at 1×10^5 cells/ml.\nCells were washed twice in phosphate buffered saline (PBS) and resuspended in RPMI medium with 4% FBS and glutamine penicillin streptomycin (GPS) (Irvine Scientific Cat No. 9316 used at 1% volume per volume) at 4×10^4 cells/ml before use. Human SCF along with specific samples were added to 4000 cells/well in 96 well plates and were cultured for 72 hrs. 0.5 uCi/well of ^3H-Thymidine was then added to each plate, plates were harvested and counted 4 hours later."}, "[1]": {"target": "T1, SCF receptor (OCIM1 plasma membrane) (Homo sapiens, UniProt P10721)", "T1 construct": "endogenous in cells; host or cells: OCIM1 human erythroleukemic cells, plasma membrane preparation", "experiment": "SCF radioreceptor assay", "assay_type": "binding", "description": "OCIM1 cells, [Papayannopoulou et al., Blood 72:1029–1038 (1988)] are a human erythroleukemic cell line expressing many human SCF receptors per cell. These cells are grown in Iscove's Modified Dulbecco's Medium, 10% FBS, and 1× glutamine and passaged 3 times a week to 1×10^5 cells/ml.\nPreparation of the OCIM1 plasma membrane is as follows with all steps performed on ice.\nFirst, 40 T175 flasks of cells were grown-up in OCIM1 culture medium, for a total of 1.9×10^9 […]. The conditioned medium and 1 mM Phenyl Methyl Sulfonyl Fluoride (PMSF) protease inhibitor, was spun down in 8×250 ml tubes at 1000 rpm for 10 minutes at 4° C. Cells were washed with PBS and repelleted in 4×50 ml centrifuge tubes at 1000 rpm for 10 minutes at 4° C. Cells were resuspended in 20 ml ice cold PBS with glucose sodium pyruvate (Gibco Cat #310-4287). The 20 ml cell solution was put into a pre-pressurized, pre-chilled (4° C.) “cell bomb” designed to lyse the cells. Cells were pressurized at 400–650 PSI for 10 minutes to establish equilibrium. When the pressure is released cell lysis occurs.\nAt this point the cells were checked for the percentage of cell lysis. 90% lysis was common. The cell suspension was resuspended in 80 mls sucrose buffer (0.25M sucrose, 10 mM Tris, 1 mM EDTA in double distilled (dd) H2O, filtered through a 0.45 u filter, pH 7.0) and divided between two 40 ml screwcap tubes. Tubes were spun at 5900 RPM for 10 minutes in a Beckman J2-21 centrifuge, JA-20 rotor at 4° C. The supernatants were saved and spun one more time as above to further remove any unwanted material. Supernatants were saved and distributed equally into 2 nalgene 40 ml centrifuge tubes. These supernatants were centrifuged at 16,000 RPM 4° C. for 30 min. in J2-21 centrifuge, JA-20 rotor. These supernatants were discarded being careful to save pellets. Each pellet was resuspended in sucrose buffer so there were 20 mls per tube in 4×36 ml plastic ultracentrifuge tubes. Using a 20 ml syringe and a large trochar, the solution was carefully underlayered in each tube with ice cold 36% sucrose solution (36.1 g sucrose/100 mls ddH2O), bringing the level of the liquid to within 2 mm of the top of the tube. Without disturbing the interface, each tube was carefully placed into each of […] titanium ultracentrifuge tubes. Tubes were centrifuged at 27,000 RPM, 4° C. for 75 minutes in an ultracentrifuge. These tubes were carefully removed from the rotor and from titanium buckets, placed in a rack with the 36% sucrose interface visible. The membraneous material at the interface was collected with a pasteur pipet and transfered into 2 clean nalgene 40 ml centrifuge tubes. Volume was brought up to 40 mls with ice cold sucrose buffer. Tubes were balanced and centrifuged as before at 5900 RPM in J2-21 centrifuge. […]"}, "human bone marrow": {"system": "human bone marrow", "experiment": "Human bone marrow colony assay", "assay_type": "cell-based", "details": "for Colony #/100,000 cells ± SD: COS-1 CM, 20 U/ml EPO, 14 days, colonies ≥0.2 mm", "description": "The cDNA of human SCF corresponding to amino acids 1–162 obtained by PCR reactions outlined in Example 3D, was expressed in COS-1 cells as described for the rat SCF in Example 4. COS-1 supernatants were assayed on human bone marrow as well as in the murine HPP-CFC and MC/9 assays. […] The culture conditions of the assay were as follows: human bone marrow from healthy volunteers was centrifuged over Ficoll-Hypaque gradients (Pharmacia) and cultured in 2.1% methyl cellulose, 30% fetal calf serum, 6×10^−5 M 2-mercaptoethanol, 2 mM glutamine, ISCOVE'S medium (GIBCO), 20 U/ml EPO, and 1×10^5 cells/ml for 14 days in a humidified atmosphere containing 7% O2, 10% CO2, and 83% N2. Only those colonies of 0.2 mm in size or larger are indicated.\nRecombinant human SCF was tested in agar colony assays on human bone marrow in combination with other growth factors as described above."}, "[2]": {"system": "5-FU treated mouse bone marrow cells", "experiment": "HPP-CFC assay", "assay_type": "cell-based", "details": "COS-1 supernatants, concentrations tested", "from_the_text": "There are a variety of biological activities which can be attributed to the natural mammalian rat SCF as well as the recombinant rat SCF protein. One such activity is its effect on early hematopoietic cells. This activity can be measured in a High Proliferative Potential Colony Forming Cell (HPP-CFC) assay [Zsebo, et al., supra (1988)]. To investigate the effects of factors on early hematopoietic cells, the HPP-CFC assay system utilizes mouse bone marrow derived from animals 2 days after 5-fluorouracil (5-FU) treatment. […] The rat SCF is plated in the presence of CSF-1 or IL-6 in semi-solid agar cultures. The agar cultures contain McCoys complete medium (GIBCO), 20% fetal bovine serum, 0.3% agar, and 2×10^5 bone marrow cells/ml. The McCoys complete medium contains the following components: 1× McCoys medium supplemented with 0.1 mM pyruvate, 0.24× essential amino acids, 0.24× non-essential amino acids, 0.027% sodium bicarbonate, 0.24× vitamins, 0.72 mM glutamine, 25 μg/ml L-serine, and 12 μg/ml L-asparagine. The bone marrow cells are obtained from Balb/c mice injected i.v. with 150 mg/kg 5-FU. The femurs are harvested 2 days post 5-FU treatment of the mice and bone marrow is flushed out. The red blood cells are lysed with red blood cell lysing reagent (Becton Dickenson) prior to plating. Test substances are plated with the above mixture in 30 mm dishes. Fourteen days later the colonies (>1 mm in diameter) which contain thousands of cells are scored. This assay was used throughout the purification of natural mammalian cell-derived rat SCF."}, "[3]": {"system": "murine mast cell line, MC/9", "experiment": "MC/9 ^3H-thymidine uptake assay", "assay_type": "cell-based", "details": "COS-1 supernatants, concentrations tested", "description": "Another useful biological activity of both naturally-derived and recombinant rat SCF is the ability to cause the proliferation of the […] murine mast cell line, MC/9 (ATCC CRL 8306). MC/9 cells are cultured with a source of […] according to the ATCC CRL 8306 protocol. The medium used in the bioassay is RPMI 1640, 4% fetal bovine serum, 5×10^−5M 2-mercaptoethanol, and 1× glutamine-pen-strep. The MC/9 cells proliferate in response to SCF without the requirement for other growth factors. This proliferation is measured by first culturing the cells for 24 h without growth factors, plating 5000 cells in each well of 96 well plates with test sample for 48 h, pulsing for 4 h with 0.5 uCi ^3H-thymidine (specific activity 20 Ci/mmol), harvesting the solution onto glass fiber filters, and then measuring specifically-bound radioactivity. This assay was used in the purification of mammalian cell derived rat SCF after the ACA 54 gel filtration step, section C2 of this Example. Typically, SCF caused a 4–10 fold increase in CPM over background."}, "KG-1": {"system": "KG-1", "experiment": "KG-1 soft agar cloning assay", "assay_type": "cell-based, human", "details": "COS-1 supernatant", "description": "Another activity of recombinant human SCF is the ability to cause proliferation in soft agar of the human acute myelogenous leukemia (AML) cell line, KG-1 (ATCC CCL 246). COS-1 supernatants from transfected cells were tested in a KG-1 agar cloning assay [Koeffler et al., Science, 200, 1153–1154 (1978)] essentially as described except cells were plated at 3000/ml."}, "mouse bone marrow cells": {"system": "mouse bone marrow cells", "experiment": "Pre-B cell colony formation in agar cultures", "assay_type": "cell-based", "from_the_text": "The ability of recombinant rat SCF^1-164 (rrSCF^1-164), to act synergistically with IL-7 to enhance lymphoid cell proliferation was studied in agar cultures of mouse bone marrow. In this assay, the colonies formed with rrSCF^1-164 alone contained monocytes, neutrophils, and blast-cells, while the colonies stimulated by IL-7 alone or in combination with rrSCF^1-164 contained primarily pre-B cells. Pre-B cells, characterized as B220^+, sIg^−, cμ^+, were identified by FACS analysis of pooled cells using fluorescence-labeled antibodies to the B220 antigen [Coffman, Immunol. Rev., 69, 5 (1982)] and to surface Ig (FITC-goat anti-K, Southern Biotechnology Assoc., Birmingham, Ala.); and by analysis of cytospin slides for cytoplasmic μ expression using fluorescence-labeled antibodies (TRITC-goat anti-μ, Southern Biotechnology Assoc.,). Recombinant human IL-7 (rhIL-7) was obtained from Biosource International (Westlake Village, Calif.). When rrSCF^1-164 was added in combination with the pre-B cell growth factor IL-7, a synergistic increase in colony formation was observed (Table 16), indicating a stimulatory role of rrSCF^1-164 on early B cell progenitors."}, "normal human bone marrow": {"system": "normal human bone marrow", "experiment": "Human CFU-GM assay", "assay_type": "cell-based", "details": "average of triplicate cultures; SCF = COS-1 supernatant 4 days after transfection"}}}
{"molecule": "SCF^11-164: E. coli human SCF analog, amino acids 11 to 164", "values": [{"measurement": "specific activity in the UT-7 assay", "setting": "UT-7 cells", "value": "negligible specific activity"}, {"measurement": "specific activity in the radioreceptor assay", "setting": "[1]", "value": "negligible specific activity"}]}
{"molecule": "hSCF: Recombinant human SCF tested in agar colony assays; form not stated at Table 13", "values": [{"measurement": "Colony #/10^5 cells (14 Days)", "setting": "human bone marrow; agar colony assay, factors alone or combined", "value": 0}]}
{"molecule": "V19.8 human SCF^1-162: recombinant human SCF amino acids 1–162, COS-1 supernatant", "values": [{"measurement": "activity in murine HPP-CFC assay", "setting": "[2]", "value": "not active"}, {"measurement": "activity in murine MC/9 assay", "setting": "[3]", "value": "not active"}, {"measurement": "Colony #/100,000 cells ± SD", "setting": "human bone marrow; 50 μl assayed", "value": "22 ± 3"}, {"measurement": "Colony #/100,000 cells ± SD", "setting": "human bone marrow; 100 μl assayed", "value": "33 ± 7"}, {"measurement": "activity on human bone marrow", "setting": "human bone marrow; COS-1 supernatants", "value": "active on human bone marrow"}, {"measurement": "Colony #/3000 Cells ± SD", "setting": "KG-1; 1.5 μl assayed", "value": "6 ± 6"}, {"measurement": "Colony #/3000 Cells ± SD", "setting": "KG-1; 3 μl assayed", "value": "6 ± 4"}, {"measurement": "Colony #/3000 Cells ± SD", "setting": "KG-1; 6 μl assayed", "value": "9 ± 5"}, {"measurement": "Colony #/3000 Cells ± SD", "setting": "KG-1; 12 μl assayed", "value": "8 ± 0"}, {"measurement": "Colony #/3000 Cells ± SD", "setting": "KG-1; 25 μl assayed, triplicate", "value": "14 ± 0"}]}
{"molecule": "SCF^1-137: E. coli human SCF analog, amino acids 1 to 137", "values": [{"measurement": "specific activity in the UT-7 assay", "setting": "UT-7 cells", "value": "about 25 % of the value for SCF^1-164"}, {"measurement": "specific activity in the radioreceptor assay", "setting": "[1]", "value": "full specific activity"}]}
{"molecule": "SCF^1-248: full length recombinant human stem cell factor formed in E. coli", "values": [{"measurement": "activity in the UT-7 assay", "setting": "UT-7 cells; final material after cation exchange chromatography", "value": "no activity"}, {"measurement": "activity in the UT-7 assay", "setting": "UT-7 cells; material following anion exchange chromatography", "value": "active"}]}
{"molecule": "rhIL-7: Recombinant human IL-7 from Biosource International", "values": [{"measurement": "Colony Number per 5 × 10^4 mouse bone marrow cells plated", "setting": "mouse bone marrow cells; 25 ng", "value": "4 ± 2"}, {"measurement": "Colony Number per 5 × 10^4 mouse bone marrow cells plated", "setting": "mouse bone marrow cells; 50 ng", "value": "13 ± 6"}, {"measurement": "Colony Number per 5 × 10^4 mouse bone marrow cells plated", "setting": "mouse bone marrow cells; 100 ng", "value": "18 ± 6"}, {"measurement": "Colony Number per 5 × 10^4 mouse bone marrow cells plated", "setting": "mouse bone marrow cells; 200 ng, mean of triplicate dishes ± SD", "value": "21 ± 6"}]}
{"molecule": "B1", "values": [{"measurement": "Colony #/100,000 cells (±SEM)", "setting": "normal human bone marrow", "value": 0}]}
